Assay results from PubChem BioAssay AID1963854 (Molecular Pharmacology Branch, DTP, NCI, 2024).

Test system: 186277-243-T-J2-PDC complex spheroid viability
Test: Anticancer human tumor 186277-243-T-J2-PDC patient-derived colon adenocarcinoma cell line growth inhibition [POLQ]
Conditions: for IC50: curve of first compound; for viability, T/C: stronger effect = lower value
Procedure: Multicellular complex tumor spheroid response to Polymerase (POL) inhibitors (novobiocin, ART-558, RP6685) in combination with a variety of drugs and investigational agents in selected tumor cell lines
The POL inhibitors (novobiocin, ART-558, and RP6685) were evaluated both individually and in combination with standard of care and investigational anticancer small molecules within a complex spheroid model of solid tumors. . Complex spheroids include a stromal component modeled by human endothelial cells (HUVEC) and fibroblasts modeled by human mesenchymal stem cells (MSCs). The concentration ranges selected for each drug and investigational agent were based upon clinically achievable concentrations if the clinical Cmax of the agent was known.
Compounds. The drugs and investigational agents: novobiocin (NSC847541), ART-558 (NSC835418), RP-6685 (NSC848927), peposertib (NSC802822), ceralasertib (NSC780249), elimusertib (NSC800525), camonsertib (NSC841442), AZD-1390 (NSC803789), olaparib (NSC753686), talazoparib (NSC767125), rucaparib (NSC756644), sotorasib (NSC818433), MRTX-1133 (NSC836407), SN-38 (NSC673596), topotecan (NSC609699), epotoside (NSC141540), doxorubicin (NSC123127), gemcitabine (NSC613327), 5-fluorouracil (NSC19893), paclitaxel (NSC125973), vemurafenib (NSC761431), MSA-2 (NSC828583), SN-011 (NSC837082), adavosertib (NSC754352), prexasertib (NSC758257), carboplatin (NSC241240) and oxaliplatin (NSC266046), were obtained from the National Cancer Institute (NCI) Developmental Therapeutics Program Chemical Repository (21). The FDA-approved anticancer drug set is available from the Developmental Therapeutics Program at https://dtp.cancer.gov/organization/dscb/obtaining/. […] The stock solutions were prepared in dimethyl sulfoxide (DMSO, Sigma-Aldrich, St. Louis, MO, cat. D2650), except for the platinum compounds which were prepared in saline (Quality Biological, Gaithersburg, MD, cat. 114-055-101), at 800-fold the tested concentration and stored at -70 degrees C prior to their use. All drugs and investigational agents were tested over a range starting from a high concentration at or near the clinical Cmax and decreasing in half-log increments. If the clinical Cmax for an agent had not been determined, the highest concentration tested was 10 microM, except for SN-38, which was tested at a high concentration of 1 microM.
Cell Culture. All cells were maintained in an incubator at 37 degrees C and 5% CO2 with 95% humidity. The PDC lines were cultured according to standard operating procedures established by the NCI PDMR (https://pdmr.cancer.gov). Table 3 of the manuscript, lists the cell lines along with the number of the three cell types plated to form the mct-spheroids and media for tumor cell growth. After thawing, all PDC lines, except 997537-175-T-J1-PDC and 415267-285-R-J2-PDC, were cultured in Matrigel-coated flasks prepared with a working solution of 1X Ham's F-12 nutrient mix, without supplementation (Thermo Fisher Scientific, cat. 11765054), 100 U/mL penicillin-streptomycin (Thermo Fisher Scientific, cat. 15140122), and 2.5% Matrigel (Corning Inc., Corning, NY, cat. 354248) for the first three passages. The two PDC lines 997537-175-T-J1-PDC and 415267-285-R-J2-PDC were cultured on uncoated flasks. The 857933-349-R-J2-PDC line was cultured in 6C/Colon 1B media containing advanced DMEM/F-12 (Thermo Fisher Scientific, cat. 12634028), 10 mM HEPES (Thermo Fisher Scientific, cat. 15630080), 1X GlutaMAX supplement (Thermo Fisher Scientific, cat. 35050061), 0.1 mg/mL primocin (InvivoGen, San Diego, CA, cat. ant-pm-2), 10% defined fetal bovine serum, heat inactivated (HyClone Laboratories Inc., Logan, UT, cat. SH30070.03HI), 50% L-WRN conditioned media (ATCC, cat. CRL-3276), 1.25 mM N-Acetyl-L-cysteine (Sigma-Aldrich, cat. A9165), 10 mM nicotinamide (Sigma-Aldrich, cat. N0636), 1X B-27 supplement (Thermo Fisher Scientific, cat. 17504044), 1X N-2 supplement (Thermo Fisher Scientific, cat. […]

[1] = second compound 0.0316 µM, first compound 0.00316 µM
[2] = second compound 0.0316 µM, first compound 0.01 µM
[3] = second compound 0.0316 µM, first compound 0.0316 µM
[4] = second compound 0.0316 µM, first compound 0.1 µM
[5] = second compound 0.0316 µM, first compound 0.316 µM
[6] = second compound 0.0316 µM, first compound 1 µM
[7] = second compound 0.1 µM, first compound 0.00316 µM
[8] = second compound 0.1 µM, first compound 0.01 µM
[9] = second compound 0.1 µM, first compound 0.0316 µM
[10] = second compound 0.1 µM, first compound 0.1 µM
[11] = second compound 0.1 µM, first compound 0.316 µM
[12] = second compound 0.1 µM, first compound 1 µM
[13] = second compound 0.316 µM, first compound 0.00316 µM
[14] = second compound 0.316 µM, first compound 0.01 µM
[15] = second compound 0.316 µM, first compound 0.0316 µM
[16] = second compound 0.316 µM, first compound 0.1 µM
[17] = second compound 0.316 µM, first compound 0.316 µM
[18] = second compound 0.316 µM, first compound 1 µM
[19] = second compound 1 µM, first compound 0.00316 µM
[20] = second compound 1 µM, first compound 0.01 µM
[21] = second compound 1 µM, first compound 0.0316 µM
[22] = second compound 1 µM, first compound 0.1 µM
[23] = second compound 1 µM, first compound 0.316 µM
[24] = second compound 1 µM, first compound 1 µM
[25] = second compound 3.16 µM, first compound 0.00316 µM
[26] = second compound 3.16 µM, first compound 0.01 µM
[27] = second compound 3.16 µM, first compound 0.0316 µM
[28] = second compound 3.16 µM, first compound 0.1 µM
[29] = second compound 3.16 µM, first compound 0.316 µM
[30] = second compound 3.16 µM, first compound 1 µM
[31] = second compound 10 µM, first compound 0.00316 µM
[32] = second compound 10 µM, first compound 0.01 µM
[33] = second compound 10 µM, first compound 0.0316 µM
[34] = second compound 10 µM, first compound 0.1 µM
[35] = second compound 10 µM, first compound 0.316 µM
[36] = second compound 10 µM, first compound 1 µM
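Also: spheroids exposed to compounds for seven days.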
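For viability, T/C in this document: 100% = DMSO vehicle control viability.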

Q: How did the IC50 (second compound 0.0316 µM) turn out when `COc1cccc(OCCCN)c1-c1cc(Nc2cnc(C#N)cn2)n[nH]1` + Cc1cccc(N(C)C(=O)C2C(O)CCN2c2nc(C)cc(C(F)(F)F)c2C#N)c1 was run?
A: < 3.16 nM

Q: What about the IC50 (second compound 0.1 µM) of the same compound?
A: < 3.16 nM

Q: What about the IC50 (second compound 0.316 µM) of the same compound?
A: < 3.16 nM

Q: What about the IC50 (second compound 1 µM) of the same compound?
A: < 3.16 nM

Q: What about the IC50 (second compound 3.16 µM) of the same compound?
A: < 3.16 nM

Q: And the IC50 (second compound 10 µM)?
A: < 3.16 nM

Q: And the viability, T/C [1]?
A: 38.4%

Q: What about the viability, T/C [2] of the same compound?
A: 14.9%

Q: And the viability, T/C [3]?
A: 11.1%

Q: What about the viability, T/C [4] of the same compound?
A: 10%

Q: And the viability, T/C [5]?
A: 9.49%

Q: And the viability, T/C [6]?
A: 10.2%

Q: And the viability, T/C [7]?
A: 33.4%

Q: What about the viability, T/C [8] of the same compound?
A: 15.7%

Q: And the viability, T/C [9]?
A: 10.9%

Q: What about the viability, T/C [10] of the same compound?
A: 9.64%

Q: And the viability, T/C [11]?
A: 10.2%

Q: What about the viability, T/C [12] of the same compound?
A: 9.26%

Q: What about the viability, T/C [13] of the same compound?
A: 30.1%

Q: And the viability, T/C [14]?
A: 12%

Q: What about the viability, T/C [15] of the same compound?
A: 10.7%

Q: And the viability, T/C [16]?
A: 10.1%

Q: And the viability, T/C [17]?
A: 9.4%

Q: And the viability, T/C [18]?
A: 8.53%

Q: And the viability, T/C [19]?
A: 30.9%

Q: And the viability, T/C [20]?
A: 11.5%

Q: And the viability, T/C [21]?
A: 9.4%

Q: What about the viability, T/C [22] of the same compound?
A: 9.54%

Q: What about the viability, T/C [23] of the same compound?
A: 9.34%

Q: And the viability, T/C [24]?
A: 9.69%

Q: What about the viability, T/C [25] of the same compound?
A: 34.2%

Q: What about the viability, T/C [26] of the same compound?
A: 11.5%

Q: What about the viability, T/C [27] of the same compound?
A: 9.08%

Q: What about the viability, T/C [28] of the same compound?
A: 9.36%

Q: What about the viability, T/C [29] of the same compound?
A: 9.81%

Q: And the viability, T/C [30]?
A: 9.01%

Q: And the viability, T/C [31]?
A: 17.9%

Q: And the viability, T/C [32]?
A: 9.92%

Q: What about the viability, T/C [33] of the same compound?
A: 8.74%

Q: And the viability, T/C [34]?
A: 8.3%

Q: And the viability, T/C [35]?
A: 9.78%

Q: And the viability, T/C [36]?
A: 9.02%

Q: With `CCc1c2c(nc3ccc(O)cc13)-c1cc3c(c(=O)n1C2)COC(=O)[C@]3(O)CC` + Nc1ccc(C#CCN(C(=O)Cc2ncc(C(F)(F)F)cc2C(F)(F)F)c2ccc(F)cc2)nn1 as the compound, how does the IC50 (second compound 0.0316 µM) read?
A: 30.9 nM

Q: What about the IC50 (second compound 0.1 µM) of the same compound?
A: 30 nM

Q: What about the IC50 (second compound 0.316 µM) of the same compound?
A: 26.1 nM

Q: And the IC50 (second compound 1 µM)?
A: 27.4 nM

Q: And the IC50 (second compound 3.16 µM)?
A: 25.5 nM

Q: What about the IC50 (second compound 10 µM) of the same compound?
A: 21.4 nM

Q: What about the viability, T/C [1] of the same compound?
A: 114%

Q: And the viability, T/C [2]?
A: 87.4%

Q: What about the viability, T/C [3] of the same compound?
A: 49.6%

Q: What about the viability, T/C [4] of the same compound?
A: 26.4%

Q: And the viability, T/C [5]?
A: 20.3%

Q: And the viability, T/C [6]?
A: 18.1%

Q: What about the viability, T/C [7] of the same compound?
A: 122%

Q: What about the viability, T/C [8] of the same compound?
A: 87.1%

Q: What about the viability, T/C [9] of the same compound?
A: 49.9%

Q: And the viability, T/C [10]?
A: 24.7%

Q: And the viability, T/C [11]?
A: 20.8%

Q: What about the viability, T/C [12] of the same compound?
A: 19.1%

Q: And the viability, T/C [13]?
A: 128%

Q: And the viability, T/C [14]?
A: 86.9%

Q: What about the viability, T/C [15] of the same compound?
A: 43.2%

Q: And the viability, T/C [16]?
A: 23.1%

Q: And the viability, T/C [17]?
A: 22.4%

Q: What about the viability, T/C [18] of the same compound?
A: 19.4%

Q: What about the viability, T/C [19] of the same compound?
A: 125%

Q: What about the viability, T/C [20] of the same compound?
A: 82.5%

Q: And the viability, T/C [21]?
A: 46.8%

Q: And the viability, T/C [22]?
A: 24.2%

Q: And the viability, T/C [23]?
A: 20.6%

Q: What about the viability, T/C [24] of the same compound?
A: 18.3%

Q: What about the viability, T/C [25] of the same compound?
A: 114%

Q: And the viability, T/C [26]?
A: 82.9%

Q: And the viability, T/C [27]?
A: 43.5%

Q: And the viability, T/C [28]?
A: 20.9%

Q: What about the viability, T/C [29] of the same compound?
A: 18.5%

Q: And the viability, T/C [30]?
A: 18.1%

Q: What about the viability, T/C [31] of the same compound?
A: 100%

Q: What about the viability, T/C [32] of the same compound?
A: 71.8%

Q: What about the viability, T/C [33] of the same compound?
A: 40.2%

Q: And the viability, T/C [34]?
A: 18.5%

Q: And the viability, T/C [35]?
A: 17%

Q: What about the viability, T/C [36] of the same compound?
A: 15.9%
